Among the data in publication PMC10333884, “Large‐scale phosphomimetic screening identifies phospho‐modulated motif‐based protein interactions” (Molecular Systems Biology, 2023) are Kd values, retold here.

In general, Kd refers to the equilibrium constant for the complex coming apart.

SMILES strings stand for the structures. Residues, ends and D or L forms follow the SMILES beside them. *: point of attachment. FITC = O=C1OC2(c3ccc(O)cc3Oc3cc(O)ccc32)c2ccc(NC(=S)*)cc21

One test concerns the target T1, RANBP2 RanBD1 4 (Homo sapiens, UniProt P49792).
T1 construct: GST (cleaved yes); made in house; host or cells: Escherichia coli BL21-Gold(DE3)
T1 sequence (P49792 2924-3050): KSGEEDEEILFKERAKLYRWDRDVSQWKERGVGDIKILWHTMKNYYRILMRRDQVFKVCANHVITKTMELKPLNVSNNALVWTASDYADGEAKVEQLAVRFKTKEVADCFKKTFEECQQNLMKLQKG
In words: FP saturation experiment, RANBP2 RanBD1 4. To be noted: FP saturation (direct binding), 5 nM FITC-labelled peptide, 50 mM sodium phosphate pH 7.4, room temperature; at least technical triplicates; probe from this study; read-out: KD [µM] + SE. Here is the method: (§1) FP experiments were performed as described previously (Kliche et al, [2021]). Shortly, in order to monitor the binding event, FITC‐labelled peptides were used (excitation 495 nm, emission: 535 nm) and the FP signal was recorded in mP on a SpectraMax iD5 Multi‐Mode Microplate Reader (Molecular Devices) by measuring the emitted light in two angels. The measurements were performed at room temperature and prepared in nonbinding black half area 96‐well microplates (Corning®; 50 μl/well). For measuring direct binding, that is saturation curves, a 1:1 dilution series of protein domain (25 μl/well) was generated in 50 mM sodium phosphate buffer pH 7.4 and the measurement performed with 5 nM FITC‐labelled peptide (25 μl/well). The buffer‐corrected values were subsequently plotted with PRISM and fitted to the quadratic equation (Gianni et al, [2005]).

The next test concerns the target T2, KPNA4 ARM minor (Homo sapiens, UniProt O00629).
T2 construct: 60-487; GST (cleaved yes); made in house; host or cells: Escherichia coli BL21-Gold(DE3)
In words: FP saturation experiment, KPNA4 ARM (minor). To be noted: FP saturation (direct binding), 5 nM FITC-labelled peptide, 50 mM sodium phosphate pH 7.4, room temperature; at least technical triplicates; reference for probe peptide PMID: 35044719; read-out: KD [µM] + SE. Here is the method:
as §1

In another test the target is T3, GGA1 VHS (Homo sapiens, UniProt Q9UJY5).
T3 construct: GGA1_VHS__Q9UJY5_1_157; GST (cleaved yes); made in house; host or cells: Escherichia coli BL21-Gold(DE3)
T3 sequence (Q9UJY5 1-157): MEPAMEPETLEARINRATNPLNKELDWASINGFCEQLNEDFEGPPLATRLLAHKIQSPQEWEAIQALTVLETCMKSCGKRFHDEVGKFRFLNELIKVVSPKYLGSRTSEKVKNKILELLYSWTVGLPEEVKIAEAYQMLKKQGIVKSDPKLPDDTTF
The experiment in a line: FP saturation experiment, GGA1 VHS. To be noted: FP saturation (direct binding), 5 nM FITC-labelled peptide, 50 mM sodium phosphate pH 7.4, room temperature; at least technical triplicates; reference for probe peptide RiboVD, Mihalič et al, to be published; read-out: KD [µM] + SE. Here is the method: as §1

The target of another test is T4, PDCD6IP Alix V domain (Homo sapiens, UniProt Q8WUM4).
T4 construct: GST (cleaved yes); made in house; host or cells: Escherichia coli BL21-Gold(DE3)
T4 sequence (Q8WUM4 360-702): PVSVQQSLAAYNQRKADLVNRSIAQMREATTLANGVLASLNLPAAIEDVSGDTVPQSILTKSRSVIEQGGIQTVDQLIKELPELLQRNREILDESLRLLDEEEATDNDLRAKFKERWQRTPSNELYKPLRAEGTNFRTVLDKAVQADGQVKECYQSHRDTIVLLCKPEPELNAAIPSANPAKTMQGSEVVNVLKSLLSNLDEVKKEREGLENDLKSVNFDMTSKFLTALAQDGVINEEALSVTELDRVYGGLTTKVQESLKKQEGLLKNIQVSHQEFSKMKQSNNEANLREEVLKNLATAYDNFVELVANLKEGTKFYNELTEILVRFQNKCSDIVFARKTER
In words: FP saturation experiment, PDCD6IP Alix V domain. To be noted: FP saturation (direct binding), 5 nM FITC-labelled peptide, 50 mM sodium phosphate pH 7.4, room temperature; at least technical triplicates; reference for probe peptide RiboVD, Mihalič et al, to be published; read-out: KD [µM] + SE. Here is the method: as §1

T2 sequence (O00629 60-487): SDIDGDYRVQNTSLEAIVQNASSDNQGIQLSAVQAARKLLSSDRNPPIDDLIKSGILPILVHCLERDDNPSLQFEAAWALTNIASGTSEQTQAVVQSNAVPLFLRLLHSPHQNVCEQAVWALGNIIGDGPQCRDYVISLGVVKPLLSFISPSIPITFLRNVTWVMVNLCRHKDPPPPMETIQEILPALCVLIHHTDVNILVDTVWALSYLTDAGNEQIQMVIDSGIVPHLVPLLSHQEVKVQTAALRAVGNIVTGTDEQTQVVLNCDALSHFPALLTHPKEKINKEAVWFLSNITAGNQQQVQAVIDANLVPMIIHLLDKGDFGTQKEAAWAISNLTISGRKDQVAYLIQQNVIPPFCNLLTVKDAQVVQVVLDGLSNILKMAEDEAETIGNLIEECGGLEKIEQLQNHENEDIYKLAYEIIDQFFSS

For the compound `CC(C)C[C@H](NC(=O)[C@H](C)NC(=O)[C@H](CCC(=O)O)NC(=O)[C@H](CCCCN)NC(=S)Nc1ccc2c(c1)C(=O)OC21c2ccc(O)cc2Oc2cc(O)ccc21)C(=O)N[C@@H](C)C(=O)N[C@H](C(=O)N1CCC[C@H]1C(=O)N[C@@H](CC(C)C)C(=O)N1CCC[C@H]1C(=O)N[C@@H](CCCCN)C(N)=O)[C@@H](C)O` [FITC-C7orf25] ({FITC}-KEALATPLPK-NH2), the Kd at RANBP2 RanBD1 4 came out at 22 ± 1 µM. As to `CC[C@H](C)[C@H](NC(=O)[C@H](C)NC(=O)[C@H](CCCNC(=N)N)NC(=O)CNC(=O)[C@@H](NC(=O)[C@H](CCCNC(=N)N)NC(=O)CNC(=O)[C@H](CCC(=O)O)NC(=O)[C@H](CCSC)NC(=O)[C@H](CCSC)NC(=O)[C@H](CC(=O)O)NC(=O)[C@H](Cc1ccc(O)cc1)NC(=O)[C@@H](NC(=O)[C@H](CCCNC(=N)N)NC(=O)[C@H](CCCCN)NC(=O)[C@@H]1CCCN1C(=S)Nc1ccc2c(c1)C(=O)OC21c2ccc(O)cc2Oc2cc(O)ccc21)[C@@H](C)O)C(C)C)C(N)=O` [FITC-NCOR2] ({FITC}-PKRTYDMMEGRVGRAI-NH2), the Kd on KPNA4 ARM minor worked out at 0.013 ± 0.0008 µM. Consider `CC[C@H](C)[C@H](NC(=O)[C@H](Cc1c[nH]cn1)NC(=O)[C@H](CC(C)C)NC(=O)[C@H](CC(C)C)NC(=O)[C@H](CC(=O)O)NC(=O)[C@H](CCC(=O)O)NC(=O)[C@H](CC(=O)O)NC(=O)[C@H](CO)NC(=O)[C@H](CC(=O)O)NC(=O)[C@H](CC(=O)O)NC(=S)Nc1ccc2c(c1)C(=O)OC21c2ccc(O)cc2Oc2cc(O)ccc21)C(=O)O` [FITC-IGF2R] ({FITC}-DDSDEDLLHI-OH), for which the Kd on GGA1 VHS is 31 ± 4 µM. On to `CC(C)C[C@H](NC(=O)[C@H](CO)NC(=O)[C@@H](NC(=O)[C@H](CC(C)C)NC(=O)[C@@H]1CCCN1C(=O)[C@@H]1CCCN1C(=O)[C@H](Cc1ccc(O)cc1)NC(=O)[C@H](CC(C)C)NC(=O)[C@H](CO)NC(=S)Nc1ccc2c(c1)C(=O)OC21c2ccc(O)cc2Oc2cc(O)ccc21)[C@@H](C)O)C(=O)N[C@@H](CCCNC(=N)N)C(=O)O` [FITC-HIV1_Gag] ({FITC}-SLYPPLTSLR-OH), for which the Kd at PDCD6IP Alix V domain turned out to be 3.6 ± 0.3 µM.
